The results in this text go back to patent publication US20090105245A1, “METHODS FOR TREATING MACULAR EDEMA AND OCULAR ANGIOGENESIS USING AN ANTI-INFLAMMATORY AGENT AND A RECEPTOR TYROSINE KINASE INHIBITOR” (priority 2006, published 2009).

The test system of assay [1] is existing laser-induced choroidal neovascularization (CNV) in the mouse. The assay is described as follows: Mouse laser-induced CNV, regression paradigm, oral gavage from day 7. It is filed as in vivo. The note with it: 3 mg/kg/day, oral from day 7.
For assay [2], the system named is VEGF-induced retinal vascular permeability. The assay is described as follows: VEGF-induced retinal vascular permeability in the rat (Evans blue), intravitreal injection. It is filed as in vivo. The settings on record: 10 μl intravitreal. The protocol: METHODS: Adult Sprague-Dawley rats were anesthetized with intramuscular ketamine/xylazine and their pupils dilated with topical cycloplegics. Rats were randomly assigned to intravitreal injection groups of 0% 0.3%, 1.0%, and 3.0% RTKI and a positive control. Ten μl of each compound was intravitreally injected in each treatment eye (n=6 eyes per group). Three days following first intravitreal injection, all animals received an intravitreal injection of 10 μl 1400 ng hr VEGF in both eyes. Twenty-four hours post-injection of VEGF, intravenous infusion of 3% Evans blue dye was performed in all animals, where 50 mg/kg of Evans blue dye was injected via the lateral tail vein during general anesthesia. After the dye had circulated for 90 minutes, the rats were euthanized. The rats were then systemically perfused with balanced salt solution, and then both eyes of each rat were immediately enucleated and the retinas harvested using a surgical microscope. After measurement of the retinal wet weight, the Evans blue dye was extracted by placing the retina in a 0.2 ml formamide (Sigma) and then the homogenized and ultracentrifuged. Blood samples were centrifuged and the plasma diluted 100 fold in formamide. For both retina and plasma samples, 60 μl of supernatant was used to measure the Evans blue dye absorbance (ABS) with at 620/740 nm. The blood-retinal barrier breakdown and subsequent retinal vascular permeability as measured by dye absorbance were calculated as means ±s.e.m. of net ABS/wet weight/plasma ABS. A two-tailed Student's t-test were used for pair wise comparisons between OS and OD eyes in each group. One way ANOVA was used to determine an overall difference between treatment means, where P≦0.05 was considered significant.

In the case of `Cc1ccc(F)c(NC(=O)Nc2ccc(-c3cccc4[nH]nc(N)c34)cc2)c1` [Compound 86, N-[4-[3-amino-1H-indazol-4-yl]phenyl]-N′-(2-fluoro-5-methylphenyl)urea], in assay [1], the “regression of existing CNV” value is on record as “did not show a significant regression of existing CNV”. In addition, the results for the “decrease of retinal vascular permeability vs vehicle-injected eyes” value in assay [2] (0.3% RTKi), in assay [2] (1.0% RTKi) and in assay [2] (3% RTKi) were 50%, 61% and 53%, respectively.
